{"source": "the NIST ThermoML archive (doi:10.1021/je300953u)", "test": "mn = molality of the nth substance listed, in mol/kg", "conditions": "101 kPa, Liquid, Vibrating tube method", "note": "Numbers after ± are expanded uncertainties.", "data": [{"smiles": "CCn1cc[n+](C)c1.[Br-]", "note": "[1-ethyl-3-methylimidazolium bromide] + O", "values": [{"measurement": "mass density", "setting": "298.15 K, m1 = 0.025", "result": "998.38 ± 0.29", "unit": "kg/m3"}, {"measurement": "mass density", "setting": "298.15 K, m1 = 0.055", "result": "999.96 ± 0.29", "unit": "kg/m3"}, {"measurement": "mass density", "setting": "308.15 K, m1 = 0.025", "result": "995.33 ± 0.29", "unit": "kg/m3"}, {"measurement": "mass density", "setting": "308.15 K, m1 = 0.055", "result": "996.89 ± 0.29", "unit": "kg/m3"}]}]}
